We go through 23 compounds from PubChem BioAssay (NCI).

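Values below derive from 48-hour exposures of cells grown in 96-well plates, with endpoints linearly interpolated between the two concentrations bracketing the appropriate inhibition level. The concentration for full growth arrest is given as TGI.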 Some results are limits rather than exact numbers.

Among the test systems are TK-10 renal; SK-MEL-28 melanoma; OVCAR-5 ovarian; HL-60(TB) leukemia; CCRF-CEM leukemia; HOP-62 NSCLC; SW-620 colon; RPMI-8226 leukemia; OVCAR-4 ovarian; HOP-92 NSCLC.
Assay in all cases: NCI tumour cell line growth inhibition, 48 h

As for `CC(=O)c1ccc2c(c1)oc(=O)n2CCN(C)C`, the TGI with TK-10 renal, with SK-MEL-28 melanoma, with OVCAR-5 ovarian, with HL-60(TB) leukemia, in the experiment with CCRF-CEM leukemia and in the experiment with HOP-62 NSCLC was > 100 µM each time. The TGI with SW-620 colon was > 100 µM.
As to `O=C1CCC2=C(CCC2)N1CCc1ccc2c(c1)OCO2`, the TGI with TK-10 renal is > 100 µM; in the experiment on SK-MEL-28 melanoma, > 100 µM; in the experiment on OVCAR-5 ovarian, > 100 µM; in the experiment with HL-60(TB) leukemia, 55.7 µM; in the experiment with CCRF-CEM leukemia it was > 100 µM; in the experiment on RPMI-8226 leukemia, 45.1 µM. The TGI with OVCAR-4 ovarian, with HOP-62 NSCLC and in the experiment on SW-620 colon was > 100 µM each time.
As to `N=C1N=C(N)c2cc3c(cc21)SCCSCCCSCCS3`, the TGI is > 54.7 µM in the experiment with HOP-92 NSCLC; 28.6 µM with TK-10 renal; 31.4 µM in the experiment on SK-MEL-28 melanoma; 40.3 µM with OVCAR-5 ovarian; 20.6 µM in the experiment on HL-60(TB) leukemia; > 25.9 µM with CCRF-CEM leukemia. Also, the TGI in the experiment with OVCAR-4 ovarian was determined as 56.5 µM; in the experiment with HOP-62 NSCLC, 30.7 µM; in the experiment on SW-620 colon, 30.7 µM.
As for `Oc1[nH]c2ccccc2c1N=NC(=S)N1CCCCCC1`, the TGI turned out to be 6.55 µM in the experiment on HOP-92 NSCLC; 7.86 µM with TK-10 renal; 7.61 µM in the experiment with SK-MEL-28 melanoma; 12.4 µM in the experiment with OVCAR-5 ovarian; 4.15 µM with RPMI-8226 leukemia; 3.91 µM in the experiment with OVCAR-4 ovarian. In addition, the TGI was determined as 4.09 µM in the experiment with HOP-62 NSCLC and 9.23 µM in the experiment with SW-620 colon.
For the compound `Brc1cccc(C2(CCCC3(c4cccc(Br)n4)OCCO3)OCCO2)n1`, the TGI with HOP-92 NSCLC, in the experiment on TK-10 renal, in the experiment on SK-MEL-28 melanoma, in the experiment with OVCAR-5 ovarian, in the experiment on RPMI-8226 leukemia and in the experiment on OVCAR-4 ovarian was > 100 µM in each case. Besides, the TGI in the experiment with HOP-62 NSCLC and in the experiment with SW-620 colon was > 100 µM in each case.
In the case of `CC(=O)OCC1OC(OCC2OC(N3C(=S)N[C@H]([C@@H](O)[C@H](O)[C@H](O)CO)[C@H]3O)C(OC(C)=O)C(OC(C)=O)C2OC(C)=O)C(OC(C)=O)C(OC(C)=O)C1OC(C)=O` (stereo not given in full), the TGI in the experiment on HOP-92 NSCLC, with TK-10 renal, in the experiment with SK-MEL-28 melanoma, with OVCAR-5 ovarian, with RPMI-8226 leukemia and with OVCAR-4 ovarian was > 100 µM throughout. Moreover, the TGI with HOP-62 NSCLC and in the experiment on SW-620 colon was > 100 µM each time.
Consider `Cc1ccnc(NC(=S)Nc2ccccc2Cl)c1`, for which the TGI in the experiment on TK-10 renal, with SK-MEL-28 melanoma, in the experiment on OVCAR-5 ovarian, in the experiment on HL-60(TB) leukemia, in the experiment with CCRF-CEM leukemia and with RPMI-8226 leukemia was > 100 µM each time. Besides, the TGI with OVCAR-4 ovarian, in the experiment with HOP-62 NSCLC and with SW-620 colon was > 100 µM each time.
As for `O=C(/C=C/c1cccs1)c1ccsc1`, the TGI is 97.6 µM with TK-10 renal; 81.7 µM in the experiment with SK-MEL-28 melanoma; > 100 µM in the experiment with OVCAR-5 ovarian; 42.1 µM with HL-60(TB) leukemia; 45.5 µM in the experiment on CCRF-CEM leukemia; 45.4 µM in the experiment on RPMI-8226 leukemia. The TGI is > 100 µM with OVCAR-4 ovarian, > 100 µM with HOP-62 NSCLC and 75.2 µM in the experiment on SW-620 colon.
Regarding `NCCCCNCCCN`, the TGI in the experiment on HOP-92 NSCLC was > 100 µM; with TK-10 renal it was > 100 µM; in the experiment with SK-MEL-28 melanoma it was > 100 µM; in the experiment with OVCAR-5 ovarian, > 100 µM; in the experiment on HL-60(TB) leukemia, > 100 µM; with OVCAR-4 ovarian, 37.6 µM. The TGI with HOP-62 NSCLC and in the experiment with SW-620 colon was > 100 µM each time.
Take `O=c1[nH]c(=O)n(C2CC(O)C(CO)O2)cc1NN=NCc1ccccc1` (stereo not given): the TGI in the experiment with TK-10 renal, with SK-MEL-28 melanoma, in the experiment on OVCAR-5 ovarian, in the experiment with HL-60(TB) leukemia, in the experiment with CCRF-CEM leukemia and in the experiment on OVCAR-4 ovarian was > 100 µM in each case. In the experiment with HOP-62 NSCLC, the TGI is > 100 µM.
Consider `CC1(C)Oc2ccc(Cl)cc2C12CC2`, for which the TGI is 40.7 µM with TK-10 renal; 41.7 µM in the experiment with SK-MEL-28 melanoma; 34.2 µM with OVCAR-5 ovarian; 40.3 µM in the experiment on HL-60(TB) leukemia; > 100 µM in the experiment with CCRF-CEM leukemia; > 100 µM with RPMI-8226 leukemia. For the same compound, the TGI with OVCAR-4 ovarian turned out to be 29.6 µM; in the experiment on HOP-62 NSCLC, 37.7 µM; with SW-620 colon, 30.9 µM.
Consider `COc1ccc(N2C(=O)C3c4[nH]c5ccccc5c4C4CCC(C(C)C)CC4C3C2=O)cc1` (stereo not given), for which the TGI with HOP-92 NSCLC, in the experiment with TK-10 renal, in the experiment with SK-MEL-28 melanoma, in the experiment on OVCAR-5 ovarian, in the experiment on CCRF-CEM leukemia and in the experiment on RPMI-8226 leukemia was > 100 µM each time. Also, the TGI in the experiment on OVCAR-4 ovarian, in the experiment on HOP-62 NSCLC and with SW-620 colon was > 100 µM throughout.
Take `Cc1cc2nc3n(c2cc1C)C(c1c(F)cccc1F)SC3` (stereo not given): the TGI is > 100 µM with TK-10 renal; 40.2 µM with SK-MEL-28 melanoma; 43 µM in the experiment on OVCAR-5 ovarian; 64.3 µM in the experiment on CCRF-CEM leukemia; 58.5 µM in the experiment on RPMI-8226 leukemia; 62.2 µM with OVCAR-4 ovarian. Also, the TGI with HOP-62 NSCLC worked out at 72 µM; with SW-620 colon, 50.9 µM.
As for `CCCCNC(=S)/N=C/c1c(O)c2ccccc2oc1=O`, the TGI in the experiment with HOP-92 NSCLC, with TK-10 renal, in the experiment on SK-MEL-28 melanoma, in the experiment on OVCAR-5 ovarian, with OVCAR-4 ovarian and with HOP-62 NSCLC was > 100 µM each time. The TGI in the experiment with SW-620 colon was > 100 µM.
`COc1ccc(OC)c(CNc2ccc(O)c(C(=O)NCCc3ccc(F)cc3)c2)c1`: the TGI in the experiment with TK-10 renal is 94.9 µM; with SK-MEL-28 melanoma, 27.7 µM; with OVCAR-5 ovarian, 64.9 µM; in the experiment with CCRF-CEM leukemia, > 100 µM; with RPMI-8226 leukemia, 15.4 µM; in the experiment on OVCAR-4 ovarian it was 66.2 µM. The TGI with HOP-62 NSCLC was 21.4 µM; in the experiment with SW-620 colon, > 100 µM.
In the case of `c1ccc(C(=NNc2nc3ccccc3[nH]2)c2ccccn2)nc1`, the TGI was 0.182 µM in the experiment with HOP-92 NSCLC; > 100 µM with SK-MEL-28 melanoma; 5.18 µM in the experiment on OVCAR-5 ovarian; 0.257 µM with CCRF-CEM leukemia; 1.02 µM in the experiment on RPMI-8226 leukemia; > 100 µM in the experiment on OVCAR-4 ovarian. Moreover, the TGI with HOP-62 NSCLC was 2.62 µM; with SW-620 colon, > 100 µM.
In the case of `Cc1cc(S(=O)(=O)O)ccc1N=Nc1ccc(N=Nc2c(O)ccc3ccccc23)c(C)c1`, the TGI with HOP-92 NSCLC was > 100 µM; in the experiment on TK-10 renal it was > 100 µM; in the experiment on SK-MEL-28 melanoma, > 100 µM; in the experiment on OVCAR-5 ovarian, > 100 µM; in the experiment on CCRF-CEM leukemia, 60.8 µM; with RPMI-8226 leukemia it was > 100 µM. In addition, the TGI in the experiment on OVCAR-4 ovarian, with HOP-62 NSCLC and with SW-620 colon was > 100 µM in each case.
In the case of `O=C(CCc1cc(O)cc(O)c1)NCCc1ccc(O)c(O)c1`, the TGI in the experiment with HOP-92 NSCLC is > 100 µM; in the experiment with TK-10 renal, > 100 µM; in the experiment on SK-MEL-28 melanoma it was > 100 µM; with OVCAR-5 ovarian, > 100 µM; with CCRF-CEM leukemia, 56.1 µM; in the experiment on RPMI-8226 leukemia, > 100 µM. In addition, the TGI with HOP-62 NSCLC and with SW-620 colon was > 100 µM in each case.
Consider `c1ccc([C@H]2CN3CCSC3=N2)cc1`, for which the TGI in the experiment on HOP-92 NSCLC, in the experiment with SK-MEL-28 melanoma, in the experiment with OVCAR-5 ovarian, in the experiment with HL-60(TB) leukemia, in the experiment on CCRF-CEM leukemia and in the experiment with OVCAR-4 ovarian was > 100 µM throughout. The TGI in the experiment with HOP-62 NSCLC and with SW-620 colon was > 100 µM each time.
For `Cc1cccc2c(N)c3cccc(C(=O)NCC[N+](C)(C)Cc4sc(N5CCOCC5)nc4[N+](=O)[O-])c3nc12`, the TGI is > 100 µM in the experiment on HOP-92 NSCLC; 37.6 µM with TK-10 renal; > 100 µM with SK-MEL-28 melanoma; 16.4 µM in the experiment with OVCAR-5 ovarian; 26.9 µM in the experiment with CCRF-CEM leukemia; > 100 µM in the experiment on RPMI-8226 leukemia. In addition, the results for the TGI in the experiment with OVCAR-4 ovarian, with HOP-62 NSCLC and in the experiment with SW-620 colon were 14.4 µM, 7.77 µM and > 100 µM, respectively.
Turning to `c1ccc(C(CCN2CCCC2)c2ccccn2)cc1` (stereo not given), the TGI in the experiment on HOP-92 NSCLC, with TK-10 renal, in the experiment with SK-MEL-28 melanoma, in the experiment with OVCAR-5 ovarian, in the experiment on RPMI-8226 leukemia and with OVCAR-4 ovarian was > 100 µM in each case. Moreover, the TGI in the experiment with HOP-62 NSCLC and in the experiment with SW-620 colon was > 100 µM in each case.
As for `O=c1c2c([nH]c3cc4c(cc13)OCO4)-c1ccccc1CCC2`, the TGI with HOP-92 NSCLC, in the experiment on TK-10 renal, in the experiment on SK-MEL-28 melanoma, with OVCAR-5 ovarian, in the experiment with CCRF-CEM leukemia and in the experiment on RPMI-8226 leukemia was > 50 µM each time. In addition, the TGI in the experiment on OVCAR-4 ovarian, with HOP-62 NSCLC and in the experiment on SW-620 colon was > 50 µM in each case.
With `CCC(=N\NC(N)=S)/C(C)=N/O`, the TGI in the experiment on HOP-92 NSCLC, with TK-10 renal, in the experiment on SK-MEL-28 melanoma, with OVCAR-5 ovarian, with RPMI-8226 leukemia and with OVCAR-4 ovarian was > 100 µM in each case. Also, the TGI with HOP-62 NSCLC and in the experiment with SW-620 colon was > 100 µM each time.
